Here are results for four compounds from patent publication US11000635B2, “Antimicrobial compositions comprising minocycline and oxidized cellulose” (priority 2017, dated 2021).

Test [1] relates to S. aureus. Description: Tertiary stage: antimicrobial activity of antibiotic-impregnated ORC extracts (ET50, MIC). It counts as cell-based, Staphylococcus aureus. The settings on record: for Antibiotic-impregnated ORC (tertiary) MIC: single antibiotic impregnated onto ORC pad; for Result (ET50): ORC pad. Here is the method: The maximum OD is determined by bacterial growth in MHBII without the chemical.
Solutions comprising different concentrations of antibiotics to be tested were prepared in methanol.
Blank ORC pads of dimensions 1×1.5 inch, weighing between 65-75 mg (70 mg on average), in duplicate, were immersed in the antibiotic solutions and then dried using a rotary evaporator to provide “antibiotic-impregnated ORC pads”.
15 ml test tubes containing 3 ml of sterile PBS were prepared, and the antibiotic-impregnated ORC pads were immersed in the tubes and incubated for 3-5 hours at ambient temperature on a roller mixer (Stuart, Cat #SRT9D).
Each of the above extracts was filtered out using a sterile 0.8/0.2 μm syringe filter into a clean 15 ml tube. These extraction fluids are referred to herein as “antibiotic-impregnated ORC extracts”.
Briefly, ORC patches weighing on average 70 mg each were impregnated with the selected antibiotic. Antibiotic-impregnated ORC extracts were prepared by immersion and incubation in 3 ml of sterile PBS for 3 hours at ambient temperature. The ORC was then removed and any remaining ORC particles were filtered out using a […] syringe filter. This extraction fluid was then diluted 10-fold into Muller Hinton growth medium containing bacteria. Bacterial growth was monitored every 20 min for a total of 18 hours according to optical density (OD) at 600 nm, using an ELISA reader.
Since the study included many possible combinations of two antibiotics, each with their own different concentration range, a matrix of possible antibiotic concentrations was designed, and ORC pads prepared accordingly (see Table 10). Since all the possible combinations could not be fitted into one 96 well plate, a series of MIC experiments were carried out.

Test [2] has as its system Staphylococcus aureus (S. aureus), Strain #6538. Description: Primary stage MIC measurement of antibiotic alone (2-fold dilutions, OD 600 nm growth curves). In kind it is cell-based. The settings on record: for MIC: Staphylococcus aureus, read-out: MIC values for S. aureus found in the present study (in-house primary MIC). As to the method: An isolated colony of S. aureus bacteria was picked from afresh streak plate (no more than 1 week old). The colony was transferred into 3-4 ml of TSB and incubated overnight in an orbital shaker at 35° C.-37° C.
The following day, the turbidity of the actively-growing broth culture was adjusted with Calcium-adjusted Mueller Hinton broth II (MHBII) to be equivalent to that of a 0.5 McFarland standard (1×10^8 CFU/ml). The broth culture was maintained under ambient conditions prior to use.
No more than 15 minutes prior to use, the culture was further diluted 20 fold in MHBII to obtain a final 5×10^6 CFU/ml stock suspension.
The method used in this stage was based on the classic Minimum Inhibitory Concentration (MIC) measurements, as described by the Clinical and Laboratory Standards Institute (CLSI) document M07-A9: “Method for Dilution Antimicrobial Susceptibility Test for Bacteria that Grow Aerobically”. While classic MIC measurements require visual inspection of plates for bacterial growth after 18 hours, growth was monitored in the present study according to optical density (OD) at 600 nm, using an ELISA reader (MultiSkan™ FC ELISA reader, Thermo Fisher Scientific, Massachusetts, USA), thereby obtaining bacterial growth curves for tested antibiotic solutions.
A 96-well assay plate layout (Corning Cat #3596) was prepared as follows:
Columns 1 and 3-12: 100 μl of MHBII alone was added to each well.
[…]: 200 μl of a solution of antibiotic in MHBII at the highest concentration to be tested was added to each well.
A series of 2-fold dilutions was performed, wherein 100 μl of solution of antibiotic was withdrawn from each well of column 2, transferred to the corresponding well of column 3, and mixed.
The dilution was then repeated by transfer from column 3 to column 4, and so on, until column 11, when the 100 μl of solution of antibiotic withdrawn from each well of column 11 was discarded.
The plate was then incubated at 37° C. with shaking in the ELISA reader and the optical density at 600 nm was read every 20 minutes for a total of 18 hours.
The average OD reading obtained for each antibiotic concentration was calculated and plotted against time to obtain a growth curve.
The MIC was determined as the first antibiotic concentration at which […] by the end of the 18-hour period.

Test [3] shares this test system. Description: Secondary stage: antibiotic alone or blank ORC extracted in antibiotic, bacterial growth curves (ET50). In kind it is cell-based. To be noted: presence of ORC pads (not impregnated), read-out: MIC upon addition of a small amount of ORC to the growth medium.
Test [4] deals with S. aureus. The settings on record: published values; cited from earlier work.
Test [5] relates to Staphylococcus aureus (S. aureus), Strain #6538. As to the kind of experiment: Secondary stage: antibiotic alone or blank ORC extracted in antibiotic, bacterial growth curves (ET50). The settings on record: antibiotic solution with versus without ORC. It counts as cell-based. As to the method: Blank ORC pads i.e. ORC pads which had not been impregnated with antibiotic (referred to herein as “blank ORC pads”), were subjected to extraction in a solution of antibiotic in PBS for three hours at ambient temperature.
Due to the acidity of ORC, which provides some antibiotic effect, the size of the pad used was small i.e. approximately 1×1.5 inch, weighing between 65-75 mg (70 mg on average) in order to prevent the ORC from affecting the final pH of the assay and therefore the growth of the bacteria.
15 ml tubes, each containing 3 ml of an antibiotic solution at a known concentration in sterile PBS, were prepared in duplicate. […]
The plate was incubated at 37° C. with shaking in the ELISA reader and the optical density at 600 nm was read every 20 minutes for a total of 18 hours.
The average and standard deviation for OD readings was calculated for each time point of the wells using Excel. […]
The average values were also entered into the GraphPad Prism program (GraphPad Software Inc., CA, USA) in order to calculate the Effective Time 50 (ET50) i.e. the time, in minutes, required for the antibiotic to induce a response halfway between the baseline and maximum, where the maximum is the bacterial growth in MHBII with PBS. This provides a quantifiable measure of the efficacy of the antibiotics tested and enables comparison of the various samples tested. […]

In brackets after ≈: the same amount, converted by molar mass. Entries after “also recorded” stand apart in the source; their conditions may differ.

Consider `CCC[C@@H]1C[C@@H](C(=O)N[C@@H]([C@H]2O[C@H](SC)[C@H](O)[C@@H](O)[C@H]2O)[C@H](C)Cl)N(C)C1` [Clindamycin, clindamycin], for which, in the test on S. aureus [1], the “Antibiotic-impregnated ORC (tertiary) MIC” value (from here on “Antibiotic-impregnated ORC”) is 0.015 µg/mL. Also, the “MIC as single antibiotic in the absence of ORC (first stage MIC results)” value (“MIC as single antibiotic in the absence” for short) in test [2] came to 0.062 µg/mL. Besides, the MIC (usually the lowest concentration found to suppress growth) in test [2] (absence of ORC) stood at 0.062 µg/mL (≈ 0.146 µM).
Consider `CN(C)c1ccc(O)c2c1C[C@H]1C[C@H]3[C@H](N(C)C)C(O)=C(C(N)=O)C(=O)[C@@]3(O)C(O)=C1C2=O` [Minocycline, minocycline], for which the “Result (ET50)” value in the test on S. aureus [1] (0.54 μg Minocycline + 0.00 μg Clindamycin per gr ORC) is 637.6 min; in the test on S. aureus [1] (0.54 μg Minocycline + 0.00 μg Rifampin per gr ORC), 585.4 min; with S. aureus [1] (1.08 μg Minocycline + 0.00 μg Clindamycin per gr ORC), 1072 min; in the test on S. aureus [1] (1.08 μg Minocycline + 0.00 μg Rifampin per gr ORC), 799.9 min; in the test on S. aureus [1] (2.16 μg Minocycline + 0.00 μg Clindamycin per gr ORC), above 2000 min; in the test on S. aureus [1] (2.16 μg Minocycline + 0.00 μg Rifampin per gr ORC), above 2000 min. The “Result (ET50)” value in the test with S. aureus [1] (2.70 μg Minocycline + 0.00 μg Clindamycin per gr ORC) and in the test on S. aureus [1] (2.70 μg Minocycline + 0.00 μg Rifampin per gr ORC) was above 2000 min in each case. In addition, the MIC turned out to be 0.0126 µg/mL in the test with S. aureus [1] (Staphylococcus aureus, single antibiotic impregnated onto ORC, read-out: MIC of minocycline together with ORC, ORC impregnated with minocycline); 0.05 µg/mL in test [3]; 0.25 µg/mL (≈ 0.546 µM) in test [2] (absence of ORC). The “Minocycline concentration sufficient for growth inhibition of S. aureus in combination” value with S. aureus [1] (impregnated onto ORC together with rifampin or clindamycin) was 1.26 ng/mL. The “Antibiotic-impregnated ORC” value in the test with S. aureus [1] stood at 0.0126 µg/mL. For the same compound, the “Fold reduction of the MIC when impregnated onto ORC in combination with an additional antibiotic” value in the test on S. aureus [1] (versus single antibiotic in the absence of ORC (first stage MIC)) was found to be 200. Also, the “MIC as single antibiotic in the absence” value in test [2] stood at 0.25 µg/mL.
In the case of `CO[C@H]1/C=C/O[C@@]2(C)Oc3c(C)c(O)c4c(O)c(c(/C=N/N5CCN(C)CC5)c(O)c4c3C2=O)NC(=O)/C(C)=C\C=C\[C@H](C)[C@H](O)[C@@H](C)[C@@H](O)[C@@H](C)[C@H](OC(C)=O)[C@@H]1C` [Rifampin, rifampin], in the test on S. aureus [4], the “MIC values for S. aureus according to CLSI” value was 0.004 to 0.015 µg/mL. Moreover, the “Result (ET50)” value in the test on S. aureus [1] (0.00 μg Minocycline + 31.41 μg Rifampin per gr ORC) was found to be 406.8 min; with S. aureus [1] (0.00 μg Minocycline + 62.82 μg Rifampin per gr ORC), 442.3 min; in the test with S. aureus [1] (0.00 μg Minocycline + 125.64 μg Rifampin per gr ORC), 450.4 min; with S. aureus [1] (0.00 μg Minocycline + 157.05 μg Rifampin per gr ORC) it was 418.1 min. Further, the “Rifampin concentration sufficient for growth inhibition of S. aureus in combination” value in the test on S. aureus [1] (impregnated onto ORC together with 1.26 ng/ml minocycline) came to 366.5 ng/mL. In addition, in the test with S. aureus [1], the “Antibiotic-impregnated ORC” value is 0.733 µg/mL. Moreover, the “Change of antimicrobial activity when impregnated onto the ORC pad” value with S. aureus [1] (versus first stage MIC) is “activity was impaired”. Also, the “Effect of addition of ORC on the antibiotic activity” value in test [5] was “ORC interferes with the antibiotic activity of rifampin; also recorded: impaired by ORC and MIC was increased”. Further, the “MIC as single antibiotic in the absence” value in test [2] came to 0.015 µg/mL. Besides, the MIC in test [2] (absence of ORC) came out at 0.015 µg/mL (≈ 0.0182 µM).
For Gentamycin [Gentamicin], the “MIC values for S. aureus according to CLSI” value in the test with S. aureus [4] is 0.12 to 1 µg/mL. Also, the “Effect of addition of ORC on the antibiotic activity” value in test [5] is “decreased antibiotic activity; also recorded: impaired by ORC and MIC was increased”. Besides, the “MIC values for S. aureus found in the present study (in-house primary MIC)” value in test [2] (absence of ORC) was 0.25 µg/mL.
